Data on 15 compounds can be found in patent EP4818157A1, “N-SUBSTITUTED CYCLIC AMIDE COMPOUND” (Kissei Pharmaceutical Co., Ltd., priority 2023, dated 2025).

One may read the IC50 as the point on the concentration scale where inhibition reaches its midpoint. A high value points to lower potency.

In the first assay the target is T1, TSHR (Mus musculus, UniProt P47750).
T1 construct: host or cells: mouse, in vivo (TRH- or M22-administered)
T1 sequence (P47750 22-764): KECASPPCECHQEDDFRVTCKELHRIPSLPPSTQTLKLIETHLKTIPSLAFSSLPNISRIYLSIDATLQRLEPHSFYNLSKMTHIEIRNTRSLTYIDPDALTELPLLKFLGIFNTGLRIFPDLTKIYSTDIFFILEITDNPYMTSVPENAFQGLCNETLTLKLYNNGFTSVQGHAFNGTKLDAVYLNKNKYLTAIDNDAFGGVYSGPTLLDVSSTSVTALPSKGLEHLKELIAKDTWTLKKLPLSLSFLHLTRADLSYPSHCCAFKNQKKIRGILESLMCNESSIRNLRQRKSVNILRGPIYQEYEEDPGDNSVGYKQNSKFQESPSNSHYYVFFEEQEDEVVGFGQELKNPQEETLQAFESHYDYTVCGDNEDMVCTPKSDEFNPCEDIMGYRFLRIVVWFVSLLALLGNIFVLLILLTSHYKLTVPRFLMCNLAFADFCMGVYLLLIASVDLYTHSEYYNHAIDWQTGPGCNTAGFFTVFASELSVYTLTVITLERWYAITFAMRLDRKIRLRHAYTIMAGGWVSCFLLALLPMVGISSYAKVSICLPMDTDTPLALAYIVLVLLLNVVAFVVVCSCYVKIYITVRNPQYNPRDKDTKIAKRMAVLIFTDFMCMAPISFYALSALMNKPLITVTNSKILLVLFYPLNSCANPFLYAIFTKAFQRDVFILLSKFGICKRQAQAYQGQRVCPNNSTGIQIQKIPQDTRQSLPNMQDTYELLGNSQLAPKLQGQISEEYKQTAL
Test: not given
As to conditions: TSH-releasing hormone (TRH)-administered mouse; cited from earlier work.
`COc1ccc(C2Nc3ccccc3C(=O)N2Cc2ccco2)cc1COc1c(C)cc(NC(C)=O)cc1C` (stereo not shown) [NCGC00242364]: the “blood T4 concentration” value is “lowering a blood T4 concentration”.

The same assay, now with this note: thyroid-stimulating antibody (M22)-administered mouse; cited from earlier work.
Consider `COc1ccc(C2Nc3ccccc3C(=O)N2Cc2ccco2)cc1COc1c(C)cc(NC(C)=O)cc1C` (stereo not shown) [NCGC00242364], for which the “blood T4 concentration” value is reported as “lowering a blood T4 concentration”.

The target in a further assay is T2, human TSHR (Homo sapiens, UniProt P16473).
T2 construct: expressed in transfected cells
T2 sequence (P16473 21-764): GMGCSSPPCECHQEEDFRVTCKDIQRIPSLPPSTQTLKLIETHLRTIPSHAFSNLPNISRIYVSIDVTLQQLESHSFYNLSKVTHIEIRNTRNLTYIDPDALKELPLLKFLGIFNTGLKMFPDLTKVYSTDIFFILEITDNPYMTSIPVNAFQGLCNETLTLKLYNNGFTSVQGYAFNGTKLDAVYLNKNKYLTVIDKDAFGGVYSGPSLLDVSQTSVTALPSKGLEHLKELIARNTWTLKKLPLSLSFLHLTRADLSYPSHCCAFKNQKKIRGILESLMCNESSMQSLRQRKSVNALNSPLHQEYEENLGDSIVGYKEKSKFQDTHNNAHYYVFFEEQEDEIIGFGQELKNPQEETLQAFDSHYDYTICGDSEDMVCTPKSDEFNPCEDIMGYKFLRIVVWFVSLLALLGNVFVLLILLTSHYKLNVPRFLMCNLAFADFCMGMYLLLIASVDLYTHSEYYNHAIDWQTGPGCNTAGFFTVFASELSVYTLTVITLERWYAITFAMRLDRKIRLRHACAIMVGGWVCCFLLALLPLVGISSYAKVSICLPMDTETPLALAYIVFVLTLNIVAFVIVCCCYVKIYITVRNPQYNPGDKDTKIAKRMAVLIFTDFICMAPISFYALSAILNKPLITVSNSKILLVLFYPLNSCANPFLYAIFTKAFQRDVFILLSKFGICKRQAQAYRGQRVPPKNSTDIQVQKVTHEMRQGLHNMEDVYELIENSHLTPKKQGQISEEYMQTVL
The assay can be described thus: Measurement of antagonist activity using TSH-induced cAMP production in human TSHR-stably expressing CHO cells. The assay is classed as cell-based. As to conditions: human TSH final concentration 50 ng/mL. Put shortly: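 CHO cells stably expressing human TSHR, in HBSS/20 mM HEPES/1 mM IBMX, pre-incubated with compound 15 min at room temperature, then stimulated 1 h at 37°C with human TSH (50 ng/mL final). cAMP measured by HTRF (665/620 nm), expressed as % of control; IC50 from concentration-response.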
With `C[C@@H]1CC[C@@H](NC(N)=O)C(=O)N1Cc1cc(C#Cc2ccccc2)ccc1F` (relative stereo) [Example A-7, 1-((3R^*,6R^*)-1-(2-fluoro-5-(phenylethynyl)benzyl)-6-methyl-2-oxopiperidin-3-yl)urea], the IC50 was below 3 µM.
In turn, `NC(=O)CC1Oc2ccccc2N(Cc2cc(C(F)(F)F)ccc2F)C1=O` (stereo not shown) [Example F-7, 2-(4-(2-fluoro-5-(trifluoromethyl)benzyl)-3-oxo-3,4-dihydro-2H-benzo[b][1,4]oxazin-2-yl)acetamide] displayed an IC50 above 30 µM.
Take `NC(=O)Nc1ccc(CN2CCCC2)n(Cc2cc(C(F)(F)F)cc(Cl)c2F)c1=O` [Example E-4, 1-(1-(3-chloro-2-fluoro-5-(trifluoromethyl)benzyl)-2-oxo-6-(pyrrolidin-1-ylmethyl)-1,2-dihydropyridin-3-yl)urea]: the IC50 is below 3 µM.
Consider `NC(=O)N[C@@H]1Cc2ccccc2N(CCCc2ccccc2)C1=O` [Example C-26, (R)-1-(2-oxo-1-(3-phenylpropyl)-1,2,3,4-tetrahydroquinolin-3-yl)urea], for which the IC50 is above 30 µM.
Compound `COC[C@@H]1CC[C@@H](NC(N)=O)C(=O)N1Cc1cc(C(F)(F)F)ccc1F` [Example D-6, 1-((3R,6S)-1-(2-fluoro-5-(trifluoromethyl)benzyl)-6-(methoxymethyl)-2-oxopiperidin-3-yl)urea] came in with an IC50 below 3 µM.
For the compound `CNC(=O)N[C@@H]1Cc2ccc(C(F)(F)F)cc2N(Cc2cc(C(F)F)ccc2F)C1=O` [Example C-28, (R)-1-(1-(5-(difluoromethyl)-2-fluorobenzyl)-2-oxo-7-(trifluoromethyl)-1,2,3,4-tetrahydroquinolin-3-yl)-3-methylurea], the IC50 was below 3 µM.
Compound `O=C(NC1CC1)N[C@@H]1CC[C@@H](C(F)F)N(Cc2cc(C(F)(F)F)ccc2F)C1=O` [Example A-26, 1-cyclopropyl-3-((3R,6S)-6-(difluoromethyl)-1-(2-fluoro-5-(trifluoromethyl)benzyl)-2-oxopiperidin-3-yl)urea] had an IC50 of 3 to 30 µM.
`NC(=O)N[C@@H]1Cc2ccc(C(F)F)cc2N(Cc2cc(OC(F)(F)F)ccc2F)C1=O` [Example C-18, (R)-1-(7-(difluoromethyl)-1-(2-fluoro-5-(trifluoromethoxy)benzyl)-2-oxo-1,2,3,4-tetrahydroquinolin-3-yl)urea] came in with an IC50 below 3 µM.
In turn, `C[C@@H]1CC[C@@H](NC(N)=O)C(=O)N1Cc1cc(-c2ccccc2)ccc1F` (relative stereo) [Example A-4, 1-((3R^*,6R^*)-1-((4-fluoro-[1,1'-biphenyl]-3-yl)methyl)-6-methyl-2-oxopiperidin-3-yl)urea] came in with an IC50 of 3 to 30 µM.
Compound `CC(C)(C)OC(=O)NCC[C@@H]1C[C@H](NC(N)=O)C(=O)N(Cc2cc(C(F)(F)F)ccc2F)C1` (relative stereo) [Example A-19, tert-butyl (2-((3R*,5S*)-1-(2-fluoro-5-(trifluoromethyl)benzyl)-6-oxo-5-ureidopiperidin-3-yl)ethyl)carbamate] came in with an IC50 below 3 µM.
In turn, `C[C@@H]1CC[C@@H](NC(N)=O)C(=O)N1Cc1cc(OCc2ccccc2)ccc1F` (relative stereo) [Example A-11, 1-((3R^*,6R^*)-1-(5-(benzyloxy)-2-fluorobenzyl)-6-methyl-2-oxopiperidin-3-yl)urea] came in with an IC50 below 3 µM.
On the same count and under the same terms, to `CNC(=O)N[C@@H]1CC[C@@H](C(F)(F)F)N(Cc2cc(C(F)(F)F)ccc2F)C1=O` [Example A-24, 1-((3R,6S)-1-(2-fluoro-5-(trifluoromethyl)benzyl)-2-oxo-6-(trifluoromethyl)piperidin-3-yl)-3-methylurea] belongs below 3 µM; to `NC(=O)N[C@@H]1CC[C@@H](C(F)(F)F)N(Cc2cc(C(F)(F)F)ccc2F)C1=O` [Example A-14, 1-((3R,6S)-1-(2-fluoro-5-(trifluoromethyl)benzyl)-2-oxo-6-(trifluoromethyl)piperidin-3-yl)urea], below 3 µM.
In turn, `CC(=O)N[C@@H]1CC[C@@H](C(F)F)N(Cc2cc(C(F)(F)F)ccc2F)C1=O` [Example A-27, N-((3R,6S)-6-(difluoromethyl)-1-(2-fluoro-5-(trifluoromethyl)benzyl)-2-oxopiperidin-3-yl)acetamide] registered an IC50 of 3 to 30 µM.
